Values quoted from earlier work, collected in patent publication US12171869B2, “Intracameral drug delivery depots” (Incept, LLC., priority 2016, dated 2024).
Several values for one entry are separate records, joined by “and”; a condition that tells them apart may be missing. Equal entries are not always repeated.

Key:
beagle = conditions: 0.004% once a day, normal healthy beagles, 5 treatment days (Carvalho et al., 2006)
[1] = eye drop studies in humans (Faulkner et al., 2010; Martinez-de-la-Casa et al., 2012)
[2] = intracameral administration, clinical studies (Charters 2016); 10 μg dose

## CC(C)OC(=O)CCC/C=C\C[C@@H]1[C@@H](/C=C/[C@@H](O)COc2cccc(C(F)(F)F)c2)[C@H](O)C[C@@H]1O [travoprost, isopropyl (Z)-7-[(1R,2R,3R,5 S)-3,5-dihydroxy-2-[(1E,3R)-3-hydroxy-4-[(α,α,α-trifluoro-m-tolyl)oxy]-1-butenyl]cyclopentyl]-5-heptenoate]
beagle
  hyperemia: hyperemia for the entire treatment period

## O=C(O)CCC/C=C\C[C@@H]1[C@@H](/C=C/[C@@H](O)COc2cccc(C(F)(F)F)c2)[C@H](O)C[C@@H]1O [travoprost free acid]
[1]
  travoprost free acid Cmax: ~2 ng/mL and ~3 ng/mL

## CCNC(=O)CCC/C=C\C[C@@H]1[C@@H](/C=C/[C@@H](O)CCc2ccccc2)[C@H](O)C[C@@H]1O [bimatoprost]
[2]
  duration of IOP reduction: up to 4 months
